Experimental data reported in patent US11834678B2, “Hematopoietic stem cells with improved properties” (Yeda Research and Development Co. Ltd., priority 2017, dated 2023).

How the values were obtained:
HSPC = settings: after a single injection; cited from earlier work
HSPCs = assay: HSPC levels in bone marrow after 6 days of NAC injections (FACS); format: in vivo; settings: CD74−/− mice; NAC 50 mg/kg i.p. for 6 days; compared to WT levels
Description: FIGS. 8A-L illustrate that CD74 regulates stem cell retention. (FIGS. 8A-C) FACS staining of HSPCs from WT and CD74^−/− mice for Ki-67. Results are represented as: (FIG. 8A) Percentage of Ki-67^+ from CD34^−LSK and percentage of Ki-67^+ from CD34^+ LSK, (FIG. 8B) percentage of CD34−LSK Ki-67− and CD34−LSK Ki-67+ from total BM cells and (FIG. 8C) percentage of CD34^+ LSK Ki-67^− and CD34^+ LSK Ki-67^+ from total BM cells, n=15. (FIGS. 8D-E) Mice were fed with 0.8 mg/ml BrdU in the drinking water for 3 days and BrdU incorporation was analyzed by FACS. Results are represented as: (FIG. 8D) % BrdU^+ in LSK; (FIG. 8E) percentage of LSK BrdU^− and percentage of LSK BrdU^+ from total BM cells, n=12-14. (FIG. 8F-G) FACS staining of HSPCs from WT and CD74^−/− mice for ROS. Results are represented as number of ROS high in million cells, n=9. (FIGS. 8H-I) percentage of HSPCs after 6 days of NAC injections mg/ml, n=5. (FIG. 8J) FACS staining of HSPCs from WT and CD74^−/− mice for Annexin V, n=10-12, and after 24 hours in hypoxia (FIG. 8K), n=4-5. (FIG. 8L) Ratio of Annexin V+CD74^−/− to WT of HSPCs in hypoxia and normoxic conditions. Bars show SEM. Unpaired t-test two tailed *<0.05 **<0.01.
Electron transfer along the mitochondrial respiration chain induces the formation of ROS (Kobayashi and Suda, 2012). […]

| Compound | time to mobilization of HSPC (HSPC) | levels of HSPCs (HSPCs) |
| --- | --- | --- |
| Zymosan | ≤ 1 h |  |
| CC(=O)N[C@@H](CS)C(=O)O [NAC, N-acetyl-L-cystein] |  | partially reduced |
